Assay results: patent publication US11077100B2, “Tetrahydroquinoline derivatives as P2X7 receptor antagonists” (RaQualia Pharma Inc., priority 2017, dated 2021)

How the values were obtained:
human P2X7 = human P2X7 (Homo sapiens (Human), UniProt Q99572); experiment: Human P2X7 functional assay (Ca2+ influx, Fluo-4, FDSS); assay type: cell-based; conditions: antagonistic activity with respect to the human P2X7 receptor; BzATP final concentration 80 microM
Outline: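 HEK293 cells stably expressing C-terminally FLAG-tagged human P2X7, loaded with Fluo-4. Compounds were preincubated for 10 min at room temperature, then 80 μM BzATP (final) was added and Ca2+ fluorescence read at 540 nm (480 nm excitation) by FDSS. IC50 values come from 7-point curves, duplicate wells.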

rat P2X7 = rat P2X7 (Rattus norvegicus (Rat), UniProt Q64663); experiment: Rat P2X7 functional assay (Ca2+ influx, Fluo-4, FDSS); assay type: cell-based; conditions: HEK293 cells stably expressing rat P2X7; BzATP final 10 microM; 7-point dose-response; read-out: Antagonistic activities with respect to the rat P2X7 receptor (IC50)
Chain of rat P2X7 (Q64663 whole entry): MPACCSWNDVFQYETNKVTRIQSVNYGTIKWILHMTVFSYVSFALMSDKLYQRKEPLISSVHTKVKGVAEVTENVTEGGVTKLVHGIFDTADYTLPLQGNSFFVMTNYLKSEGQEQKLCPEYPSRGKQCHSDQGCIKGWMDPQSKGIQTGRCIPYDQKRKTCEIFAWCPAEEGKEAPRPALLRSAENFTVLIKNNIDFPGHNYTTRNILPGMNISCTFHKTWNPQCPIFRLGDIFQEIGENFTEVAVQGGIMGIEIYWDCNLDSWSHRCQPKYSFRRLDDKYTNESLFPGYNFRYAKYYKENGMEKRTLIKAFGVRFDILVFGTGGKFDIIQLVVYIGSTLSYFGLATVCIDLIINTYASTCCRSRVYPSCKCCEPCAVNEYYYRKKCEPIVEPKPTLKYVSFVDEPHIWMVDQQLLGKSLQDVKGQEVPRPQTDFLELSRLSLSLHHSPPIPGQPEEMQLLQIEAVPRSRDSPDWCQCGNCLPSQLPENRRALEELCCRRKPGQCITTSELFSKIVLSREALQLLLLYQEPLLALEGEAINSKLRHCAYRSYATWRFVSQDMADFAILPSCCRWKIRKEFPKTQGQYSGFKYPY
Outline: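 HEK293 cells stably expressing rat P2X7 (5,000/well, plated 24 h before) loaded with Fluo-4; compounds preincubated 10 min at room temperature, then Ca2+ rise after 10 microM BzATP (final) read on FDSS (480/540 nm). IC50 from 7-point curves, duplicate wells.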

Chain of human P2X7 (Q99572 whole entry): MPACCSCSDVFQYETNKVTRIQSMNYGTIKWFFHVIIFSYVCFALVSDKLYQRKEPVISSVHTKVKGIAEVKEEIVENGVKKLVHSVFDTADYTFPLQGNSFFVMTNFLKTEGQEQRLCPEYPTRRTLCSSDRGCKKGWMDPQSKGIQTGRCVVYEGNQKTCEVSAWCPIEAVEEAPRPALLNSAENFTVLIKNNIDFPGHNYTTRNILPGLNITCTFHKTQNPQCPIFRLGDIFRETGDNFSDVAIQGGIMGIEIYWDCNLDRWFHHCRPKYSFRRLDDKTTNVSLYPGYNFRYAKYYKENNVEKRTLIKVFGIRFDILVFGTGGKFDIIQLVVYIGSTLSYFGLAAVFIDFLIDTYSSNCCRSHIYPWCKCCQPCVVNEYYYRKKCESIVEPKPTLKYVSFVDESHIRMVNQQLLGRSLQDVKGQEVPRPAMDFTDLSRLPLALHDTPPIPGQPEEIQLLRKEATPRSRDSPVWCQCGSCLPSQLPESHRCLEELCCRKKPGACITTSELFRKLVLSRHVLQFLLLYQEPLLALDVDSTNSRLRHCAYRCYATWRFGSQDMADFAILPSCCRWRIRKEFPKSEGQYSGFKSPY

| Compound | IC50 (human P2X7) | IC50 (rat P2X7) |
| --- | --- | --- |
| CS(=O)(=O)C[C@]1(O)CC[C@@](F)(C(=O)NCc2ccc(Cl)cc2Cl)c2cccnc21 [Example 298, (5S,8S)-N-(2,4-dichlorobenzyl)-5-fluoro-8-hydroxy-8-((methylsulfonyl)methyl)-5,6,7,8-tetrahydroquinoline-5-carboxamide] | < 0.05 µM | < 1 µM |
| CS(=O)(=O)C[C@]1(O)CC[C@@](F)(C(=O)NCc2ccc(F)cc2Cl)c2cccnc21 [Example 299, (5S,8S)-N-(2-chloro-4-fluorobenzyl)-5-fluoro-8-hydroxy-8-((methylsulfonyl)methyl)-5,6,7,8-tetrahydroquinoline-5-carboxamide] | 0.101 to 0.3 µM | < 1 µM |
| O=C(NCc1ccc(Cl)cc1Cl)[C@]1(F)CC[C@@](O)(CS(=O)(=O)CCO)c2ncccc21 [Example 300, (5S,8S)-N-(2,4-dichlorobenzyl)-5-fluoro-8-hydroxy-8-(((2-hydroxyethyl)sulfonyl)methyl)-5,6,7,8-tetrahydroquinoline-5-carboxamide] | < 0.05 µM | < 1 µM |
| O=C(NCc1ccc(F)cc1Cl)[C@]1(F)CC[C@@](O)(CS(=O)(=O)CCO)c2ncccc21 [Example 301, (5S,8S)-N-(2-chloro-4-fluorobenzyl)-5-fluoro-8-hydroxy-8-(((2-hydroxyethyl)sulfonyl)methyl)-5,6,7,8-tetrahydroquinoline-5-carboxamide] | 0.05 to 0.1 µM | < 1 µM |
| O=C(NCc1ccc(Cl)cc1Cl)[C@@]1(F)CC[C@](O)(CO)c2ncccc21 [Example 302, (5R,8R)-N-(2,4-dichlorobenzyl)-5-fluoro-8-hydroxy-8-(hydroxymethyl)-5,6,7,8-tetrahydroquinoline-5-carboxamide] | 0.101 to 0.3 µM | < 1 µM |
| O=C(NCc1ccc(Cl)cc1Cl)[C@@]1(F)CC[C@@](O)(CO)c2ncccc21 [Example 303, (5R,8S)-N-(2,4-dichlorobenzyl)-5-fluoro-8-hydroxy-8-(hydroxymethyl)-5,6,7,8-tetrahydroquinoline-5-carboxamide] | 1 to 3 µM | < 1 µM |
| O=C(NCc1ccc(Cl)cc1Cl)[C@]1(F)CC[C@@](O)(CO)c2ncccc21 [Example 304, (5S,8S)-N-(2,4-dichlorobenzyl)-5-fluoro-8-hydroxy-8-(hydroxymethyl)-5,6,7,8-tetrahydroquinoline-5-carboxamide] | < 0.05 µM | < 1 µM |
| O=C(NCc1ccc(Cl)cc1Cl)[C@]1(F)CC[C@](O)(CO)c2ncccc21 [Example 305, (5S,8R)-N-(2,4-dichlorobenzyl)-5-fluoro-8-hydroxy-8-(hydroxymethyl)-5,6,7,8-tetrahydroquinoline-5-carboxamide] | < 0.05 µM | < 1 µM |
| O=C(NCc1ccc(F)cc1Cl)[C@]1(F)CC[C@@](O)(CO)c2ncccc21 [Example 306, (5S,8S)-N-(2-chloro-4-fluorobenzyl)-5-fluoro-8-hydroxy-8-(hydroxymethyl)-5,6,7,8-tetrahydroquinoline-5-carboxamide] | < 0.05 µM | < 1 µM |
| O=C(NCc1ccc(F)cc1Cl)[C@]1(F)CC[C@](O)(CO)c2ncccc21 [Example 307, (5S,8R)-N-(2-chloro-4-fluorobenzyl)-5-fluoro-8-hydroxy-8-(hydroxymethyl)-5,6,7,8-tetrahydroquinoline-5-carboxamide] | 0.301 to 1 µM | < 1 µM |
| O=C(NCc1c(F)cc(Cl)cc1Cl)[C@]1(F)CC[C@@](O)(CO)c2ncccc21 [Example 310, (5S,8S)-N-(2,4-dichloro-6-fluorobenzyl)-5-fluoro-8-hydroxy-8-(hydroxymethyl)-5,6,7,8-tetrahydroquinoline-5-carboxamide] | < 0.05 µM | < 1 µM |
| O=C(NCc1c(F)cc(Cl)cc1Cl)[C@]1(F)CC[C@](O)(CO)c2ncccc21 [Example 311, (5S,8R)-N-(2,4-dichloro-6-fluorobenzyl)-5-fluoro-8-hydroxy-8-(hydroxymethyl)-5,6,7,8-tetrahydroquinoline-5-carboxamide] | 0.05 to 0.1 µM | < 1 µM |
| O=C(NCc1c(Cl)cc(Cl)cc1CO)[C@]1(F)CC[C@@](O)(CO)c2ncccc21 [Example 316, (5S,8S)-N-(2,4-dichloro-6-(hydroxymethyl)benzyl)-5-fluoro-8-hydroxy-8-(hydroxymethyl)-5,6,7,8-tetrahydroquinoline-5-carboxamide] | < 0.05 µM | < 1 µM |
| O=C(NCc1c(Cl)cc(F)cc1CO)[C@]1(F)CC[C@@](O)(CO)c2ncccc21 [Example 317, (5S,8S)-N-(2-chloro-4-fluoro-6-(hydroxymethyl)benzyl)-5-fluoro-8-hydroxy-8-(hydroxymethyl)-5,6,7,8-tetrahydroquinoline-5-carboxamide] | < 0.05 µM | < 1 µM |
| O=C(NCc1c(F)cc(F)cc1Cl)[C@]1(F)CC[C@@](O)(CO)c2ncccc21 [Example 321, (5S,8S)-N-(2-chloro-4,6-difluorobenzyl)-5-fluoro-8-hydroxy-8-(hydroxymethyl)-5,6,7,8-tetrahydroquinoline-5-carboxamide] | < 0.05 µM | < 1 µM |
| O=C(NCc1c(F)cc(Cl)cc1F)[C@]1(F)CC[C@@](O)(CO)c2ncccc21 [Example 324, (5S,8S)-N-(4-chloro-2,6-difluorobenzyl)-5-fluoro-8-hydroxy-8-(hydroxymethyl)-5,6,7,8-tetrahydroquinoline-5-carboxamide] | 0.05 to 0.1 µM | < 1 µM |
| C[C@@H](NC(=O)[C@]1(F)CC[C@@](O)(CO)c2ncccc21)c1ccc(Cl)cc1Cl [Example 326, (5S,8S)-N-((R)-1-(2,4-dichlorophenyl)ethyl)-5-fluoro-8-hydroxy-8-(hydroxymethyl)-5,6,7,8-tetrahydroquinoline-5-carboxamide] | < 0.05 µM | < 1 µM |

Results, then the compound that gave them:

| IC50 (human P2X7) | IC50 (rat P2X7) | Compound |
| --- | --- | --- |
| 0.101 to 0.3 µM | < 1 µM | O=C(NCc1ccc(F)c(F)c1F)[C@]1(F)CC[C@@](O)(CO)c2ncccc21 [Example 308, (5S,8S)-5-fluoro-8-hydroxy-8-(hydroxymethyl)-N-(2,3,4-trifluorobenzyl)-5,6,7,8-tetrahydroquinoline-5-carboxamide] |
| 1 to 3 µM | < 1 µM | O=C(NCc1ccc(F)c(F)c1F)[C@]1(F)CC[C@](O)(CO)c2ncccc21 [Example 309, (5S,8R)-5-fluoro-8-hydroxy-8-(hydroxymethyl)-N-(2,3,4-trifluorobenzyl)-5,6,7,8-tetrahydroquinoline-5-carboxamide] |
| < 0.05 µM | < 1 µM | O=C(NCc1ccc(F)c(F)c1Cl)[C@]1(F)CC[C@@](O)(CO)c2ncccc21 [Example 312, (5S,8S)-N-(2-chloro-3,4-difluorobenzyl)-5-fluoro-8-hydroxy-8-(hydroxymethyl)-5,6,7,8-tetrahydroquinoline-5-carboxamide] |
| 0.05 to 0.1 µM | < 1 µM | O=C(NCc1ccc(F)c(F)c1Cl)[C@]1(F)CC[C@](O)(CO)c2ncccc21 [Example 313, (5S,8R)-N-(2-chloro-3,4-difluorobenzyl)-5-fluoro-8-hydroxy-8-(hydroxymethyl)-5,6,7,8-tetrahydroquinoline-5-carboxamide] |
| 0.101 to 0.3 µM | < 1 µM | O=C(NCc1ccc(Cl)cc1F)[C@]1(F)CC[C@@](O)(CO)c2ncccc21 [Example 314, (5S,8S)-N-(4-chloro-2-fluorobenzyl)-5-fluoro-8-hydroxy-8-(hydroxymethyl)-5,6,7,8-tetrahydroquinoline-5-carboxamide] |
| 1 to 3 µM | < 1 µM | O=C(NCc1ccc(Cl)cc1F)[C@]1(F)CC[C@](O)(CO)c2ncccc21 [Example 315, (5S,8R)-N-(4-chloro-2-fluorobenzyl)-5-fluoro-8-hydroxy-8-(hydroxymethyl)-5,6,7,8-tetrahydroquinoline-5-carboxamide] |
| 0.301 to 1 µM | < 1 µM | O=C(NCc1ccc(F)cc1F)[C@]1(F)CC[C@@](O)(CO)c2ncccc21 [Example 318, (5S,8S)-N-(2,4-difluorobenzyl)-5-fluoro-8-hydroxy-8-(hydroxymethyl)-5,6,7,8-tetrahydroquinoline-5-carboxamide] |
| < 0.05 µM | < 1 µM | O=C(NCc1ccc(Cl)c(F)c1Cl)[C@]1(F)CC[C@@](O)(CO)c2ncccc21 [Example 319, (5S,8S)-N-(2,4-dichloro-3-fluorobenzyl)-5-fluoro-8-hydroxy-8-(hydroxymethyl)-5,6,7,8-tetrahydroquinoline-5-carboxamide] |
| < 0.05 µM | < 1 µM | O=C(NCc1ccc(F)c(Cl)c1Cl)[C@]1(F)CC[C@@](O)(CO)c2ncccc21 [Example 320, (5S,8S)-N-(2,3-dichloro-4-fluorobenzyl)-5-fluoro-8-hydroxy-8-(hydroxymethyl)-5,6,7,8-tetrahydroquinoline-5-carboxamide] |
| 0.101 to 0.3 µM | < 1 µM | O=C(NCc1ccc(Cl)c(F)c1F)[C@]1(F)CC[C@@](O)(CO)c2ncccc21 [Example 322, (5S,8S)-N-(4-chloro-2,3-difluorobenzyl)-5-fluoro-8-hydroxy-8-(hydroxymethyl)-5,6,7,8-tetrahydroquinoline-5-carboxamide] |
| 0.101 to 0.3 µM | < 1 µM | O=C(NCc1ccc(F)c(Cl)c1F)[C@]1(F)CC[C@@](O)(CO)c2ncccc21 [Example 323, (5S,8S)-N-(3-chloro-2,4-difluorobenzyl)-5-fluoro-8-hydroxy-8-(hydroxymethyl)-5,6,7,8-tetrahydroquinoline-5-carboxamide] |
